Reference: PubChem BioAssay (NCI)
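Assay format: 96-well plates, 48-hour exposure. GI50 is the concentration that inhibits growth by half. TGI marks complete inhibition of growth.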

Legend:
Test in all cases: NCI tumour cell line growth inhibition, 48 h
[1] = system: MALME-3M melanoma
[2] = system: HCT-15 colon
[3] = system: HS 578T breast
[4] = system: K-562 leukemia
[5] = system: SNB-19 CNS
[6] = system: MCF7 breast
[7] = system: KM12 colon
[8] = system: MOLT-4 leukemia
[9] = system: SW-620 colon
[10] = system: OVCAR-5 ovarian
[11] = system: NCI-H522 lung
[12] = system: NCI-H23 lung
[13] = system: ACHN renal
[14] = system: UO-31 renal
[15] = system: SR leukemia
[16] = system: SK-MEL-28 melanoma
[17] = system: M14 melanoma
[18] = system: A498 renal
[19] = system: IGROV1 ovarian
[20] = system: BT-549 breast
[21] = system: DU-145 prostate
[22] = system: CCRF-CEM leukemia
[23] = system: UACC-62 melanoma
[24] = system: HOP-92 NSCLC
[25] = system: HT29 colon
[26] = system: COLO 205 colon
[27] = system: HCT-116 colon
[28] = system: SF-539 CNS
[29] = system: PC-3 prostate
[30] = system: MDA-MB-468 breast
[31] = system: EKVX NSCLC
[32] = system: HL-60(TB) leukemia
[33] = system: NCI-H460 lung
[34] = system: OVCAR-4 ovarian
[35] = system: SK-OV-3 ovarian
[36] = system: HOP-62 NSCLC
[37] = system: SK-MEL-5 melanoma
[38] = system: HCC-2998 colon
[39] = system: UACC-257 melanoma
[40] = system: TK-10 renal
[41] = system: MDA-MB-231 breast
[42] = system: U251 CNS
[43] = system: SF-268 CNS
[44] = system: OVCAR-8 ovarian
[45] = system: CAKI-1 renal
[46] = system: LOX IMVI melanoma
[47] = system: SF-295 CNS
[48] = system: SN12C renal
[49] = system: OVCAR-3 ovarian
[50] = system: 786-0 renal
[51] = system: NCI-H226 lung
[52] = system: SNB-75 CNS
[53] = system: A549 NSCLC
[54] = system: T-47D breast
[55] = system: RXF 393 renal
[56] = system: RPMI-8226 leukemia

Compound CN(C)c1ccnc(CNCCSC2(c3ccc(C(F)(F)F)cc3)c3ccccc3CCc3ccccc32)c1 has a GI50 [1] of 1.44 µM, a TGI [1] of 3.09 µM and a GI50 [2] of 0.403 µM. It also gave a TGI [2] of 11 µM, a GI50 [3] of 1.62 µM and a TGI [3] of 7.58 µM. The GI50 [4] was 0.336 µM, the TGI [4] was 1.86 µM and the GI50 [5] was 1.24 µM. The TGI [5] was 14.3 µM, the GI50 [6] was 0.356 µM and the TGI [6] was 4.32 µM. The GI50 [7] was 1.26 µM, the TGI [7] was 5.16 µM and the GI50 [8] was 1.6 µM. For the same compound, the TGI [8] was 4.45 µM, the GI50 [9] was 0.446 µM and the TGI [9] was 12.5 µM. It also gave a GI50 [10] of 2.04 µM, a TGI [10] of 9.12 µM and a GI50 [11] of 0.473 µM. For the same compound, the TGI [11] was 4.26 µM, the GI50 [12] was 2.72 µM and the TGI [12] was 11.8 µM. It also gave a GI50 [13] of 0.909 µM, a TGI [13] of 15 µM and a GI50 [14] of 2.46 µM. For the same compound, the TGI [14] was 16 µM, the GI50 [15] was 0.345 µM and the TGI [15] was 1.62 µM. The GI50 [16] was 3.76 µM, the TGI [16] was 15.9 µM and the GI50 [17] was 0.465 µM. For the same compound, the TGI [17] was 2.97 µM, the GI50 [18] was 14 µM and the TGI [18] was 32.1 µM. It also gave a GI50 [19] of 1.4 µM, a TGI [19] of 13.6 µM and a GI50 [20] of 2.76 µM. For the same compound, the TGI [20] was 7.36 µM, the GI50 [21] was 3.08 µM and the TGI [21] was 11.3 µM. The GI50 [22] was 0.37 µM, the TGI [22] was 6.35 µM and the GI50 [23] was 3.24 µM. The TGI [23] was 14.5 µM, the GI50 [24] was 2.12 µM and the TGI [24] was 11.7 µM. It also gave a GI50 [25] of 1.68 µM, a TGI [25] of 4.11 µM and a GI50 [26] of 1.02 µM. It also gave a TGI [26] of 2.42 µM, a GI50 [27] of 0.365 µM and a TGI [27] of 1.78 µM. For the same compound, the GI50 [28] was 0.675 µM, the TGI [28] was 2.47 µM and the GI50 [29] was 1.05 µM. For the same compound, the TGI [29] was 12 µM, the GI50 [30] was 0.293 µM and the TGI [30] was 0.906 µM. For the same compound, the GI50 [31] was 0.653 µM, the TGI [31] was 12.7 µM and the GI50 [32] was 0.394 µM. For the same compound, the TGI [32] was 1.96 µM, the GI50 [33] was 0.603 µM and the TGI [33] was 2.54 µM. The GI50 [34] was 4.05 µM, the TGI [34] was 17.3 µM and the GI50 [35] was 3.32 µM. The TGI [35] was 13.4 µM, the GI50 [36] was 2.2 µM and the TGI [36] was 13.6 µM. The GI50 [37] was 1.15 µM, the TGI [37] was 2.46 µM and the GI50 [38] was 0.537 µM. The TGI [38] was 1.83 µM, the GI50 [39] was 3.67 µM and the TGI [39] was 15.9 µM. It also gave a GI50 [40] of 3.91 µM, a TGI [40] of 16.1 µM and a GI50 [41] of 0.479 µM. It also gave a TGI [41] of 2.75 µM, a GI50 [42] of 0.439 µM and a TGI [42] of 3.56 µM. For the same compound, the GI50 [43] was 3.24 µM, the TGI [43] was 17.7 µM and the GI50 [44] was 0.739 µM. The TGI [44] was 10.8 µM, the GI50 [45] was 2.11 µM and the TGI [45] was 14.8 µM. For the same compound, the GI50 [46] was 1.14 µM, the TGI [46] was 2.43 µM and the GI50 [47] was 0.467 µM. For the same compound, the TGI [47] was 2.34 µM, the GI50 [48] was 0.59 µM and the TGI [48] was 8.25 µM. For the same compound, the GI50 [49] was 1.31 µM, the TGI [49] was 10.5 µM and the GI50 [50] was 1.9 µM. The TGI [50] was 11.2 µM, the GI50 [51] was 2.38 µM and the TGI [51] was 13.9 µM. It also gave a GI50 [52] of 1.84 µM, a TGI [52] of 8.92 µM and a GI50 [53] of 1.3 µM. The TGI [53] was 15.1 µM, the GI50 [54] was 3.42 µM and the TGI [54] was 15.6 µM. It also gave a GI50 [55] of 2.17 µM, a TGI [55] of 9.12 µM and a GI50 [56] of 1.18 µM. The TGI [56] was 6.42 µM.
